The source of these data is ChEMBL document CHEMBL1155481, “N-Hydroxybenzimidazole inhibitors of ExsA MAR transcription factor in Pseudomonas aeruginosa: In vitro anti-virulence activity and metabolic stability” (Bioorg Med Chem Lett, 2010).

One data set deals with J774.A1. Nature of the data set: Cytoprotective activity against Pseudomonas aeruginosa-induced cytotoxicity in mouse J774A1 cells assessed as LDH release at 100 uM. The format is functional. For orientation: LDH in the medium is a marker of cell lysis.
Data set [1] is described as follows: Chemical stability of the compound. The format is physicochemical.
Another data set deals with Liver microsomes. Description: Metabolic stability in human liver microsome. The format is ADME.
Data set [2] deals with T1, HTH-type transcriptional regulator ExsA (Pseudomonas aeruginosa (strain ATCC 15692 / PAO1 / 1C / PRS 101 / LMG12228), UniProt P26993).
T1 sequence (P26993 whole entry): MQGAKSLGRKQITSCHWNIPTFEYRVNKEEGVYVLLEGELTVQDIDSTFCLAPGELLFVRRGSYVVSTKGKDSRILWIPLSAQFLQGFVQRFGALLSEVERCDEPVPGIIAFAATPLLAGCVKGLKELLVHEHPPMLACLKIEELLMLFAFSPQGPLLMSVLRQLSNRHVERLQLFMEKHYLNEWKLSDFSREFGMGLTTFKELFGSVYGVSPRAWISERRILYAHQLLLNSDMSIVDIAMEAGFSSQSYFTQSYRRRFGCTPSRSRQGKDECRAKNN
Description: Inhibition of Pseudomonas aeruginosa 388 ExsA DNA binding activity.

The target of data set [3] is T1, HTH-type transcriptional regulator ExsA. Description: Inhibition of Pseudomonas aeruginosa PAO1 ExsA DNA binding activity.

For `CC(=O)c1ccc(/C=C/C(=O)Nc2ccc(-c3nc4ccc([N+](=O)[O-])cc4n3O)cc2)cc1`, the Activity with J774.A1 is 22.4%. In addition, the Stability result (in data set [1]; with Liver microsomes) was “Stable” each time. Besides, the IC50 (in general, the point on the concentration scale where inhibition reaches its midpoint) in data set [2] amounted to 3 µM.
Regarding `CN(C)c1ccc(/C=C/C(=O)Nc2ccc(-c3nc4ccc([N+](=O)[O-])cc4n3O)cc2)cn1`, the Stability result in data set [1] is recorded as “Stable”. This compound registered an IC50 in data set [3] above 100 µM.
In the case of `O=C(/C=C/c1ccc(C(F)(F)F)nc1)Nc1ccc(-c2nc3ccc([N+](=O)[O-])cc3n2O)cc1`, the Activity with J774.A1 was 78.5%. The Stability entry in data set [1] is listed as “Stable”. Further, the IC50 in data set [3] worked out at 6.7 µM.
For the compound `O=C(/C=C/c1ccc(F)cc1)Nc1ccc(-c2nc3ccc([N+](=O)[O-])cc3n2O)cc1`, the Stability entry in the data set on Liver microsomes was “Stable”.
For `CSc1ccc(/C=C/C(=O)Nc2ccc(-c3nc4ccc([N+](=O)[O-])cc4n3O)cc2)cn1`, the Activity in the data set with J774.A1 worked out at 52.7%. The Stability entry in data set [1] is reported as “Stable”. In data set [3], this compound displayed an IC50 of 6.9 µM.
Regarding `CC(=O)c1ccc(/C=C/C(=O)N(CC(=O)O)c2ccc(-c3nc4ccc(C#N)cc4n3O)cc2)cc1`, the Stability entry in data set [1] is recorded as “Stable”. Further, in data set [3], the IC50 was above 51 µM.
Consider `CC(=O)c1ccc(/C=C/C(=O)Nc2ccc(-c3nc4ccc(C#N)cc4n3O)cc2)cc1`, for which the Activity in the data set on J774.A1 was 19.2%. Moreover, the Stability entry (in data set [1]; with Liver microsomes) was “Stable” throughout. Further, the IC50 in data set [2] was 13 µM.
`CSc1ccc(/C=C/C(=O)Nc2ccc(-c3nc4ccc([N+](=O)[O-])cc4n3O)cc2)cc1`: the Activity in the data set on J774.A1 is given as above 100%. The Stability entry in data set [1] is given as “Stable”. This compound showed an IC50 in data set [3] of 10.4 µM.
Take `CC(=O)c1ccc(/C=C/C(=O)Nc2ccc(-c3nc4c(CC(=O)O)cc([N+](=O)[O-])cc4n3O)cc2)cn1`: the Activity with J774.A1 is given as 33.1%. Besides, the Stability result in data set [1] was “Stable”. The IC50 in data set [3] amounted to 4.6 µM.
In the case of `CC(=O)c1ccc(/C=C/C(=O)Nc2ccc(-c3nc4c(CC(=O)O)cc([N+](=O)[O-])cc4n3O)cc2)cc1`, the Activity in the data set on J774.A1 is given as 65.4%. In addition, the Stability entry in data set [1] is on record as “Stable”. In data set [3], this compound had an IC50 of 3.7 µM.
With `O=C(/C=C/c1ccc(-n2ccnc2)nc1)Nc1ccc(-c2nc3ccc([N+](=O)[O-])cc3n2O)cc1`, the Stability entry in data set [1] is “Stable”. Further, the IC50 in data set [3] worked out at 31.2 µM.
Regarding `CSc1ccc(/C=C/C(=O)Nc2ccc(-c3nc4ccc(C#N)cc4n3O)cc2)cn1`, the Activity in the data set on J774.A1 was 46.6%. The Stability entry in data set [1] is “Stable”. Moreover, the IC50 in data set [3] came to 3.5 µM.
Consider `CC(=O)c1ccc(/C=C/C(=O)N(CC(N)=O)c2ccc(-c3nc4ccc([N+](=O)[O-])cc4n3O)cc2)cc1`, for which, in data set [1], the Stability result is reported as “Stable”. The compound also showed an IC50 in data set [3] above 47.5 µM.
For `CC(=O)c1ccc(/C=C/C(=O)N(CC(N)=O)c2ccc(-c3nc4ccc(C#N)cc4n3O)cc2)cc1`, in data set [1], the Stability entry is reported as “Stable”. This compound displayed an IC50 in data set [3] above 49 µM.
As to `CC(=O)c1ccc(/C=C/C(=O)Nc2ccc(-c3nc4ccc([N+](=O)[O-])cc4n3O)cc2)cn1`, the Activity with J774.A1 turned out to be 12.1%. In addition, the Stability entry in data set [1] is “Stable”. For the same compound, the IC50 in data set [2] came to 7.5 µM.
As to `O=C(/C=C/c1ccc(C(O)(O)C(F)(F)F)cc1)Nc1ccc(-c2nc3ccc([N+](=O)[O-])cc3n2O)cc1`, the Stability result in data set [1] is given as “Stable”. Further, the IC50 in data set [3] is above 100 µM.
As to `CSc1ccc(/C=C/C(=O)Nc2ccc(-c3nc4ccc(C#N)cc4n3O)cc2)cc1`, in the data set with J774.A1, the Activity is recorded as above 100%. Further, in data set [1], the Stability result is on record as “Stable”. Moreover, the IC50 in data set [3] was found to be 7.3 µM.
